Results on four compounds are retold here after ChEMBL document CHEMBL1146723, “Synthesis of benzophenone oxime analogues as inhibitor of secretory phospholipase A(2) with anti-inflammatory activity” (2004).

Where “and” joins values, the source holds several entries; their conditions need not be identical. Identical values can stand only once. Calls of active or inactive are those of the source. The rule behind the calls is not given here.

Assay [1] relates to Daboia russellii. Kind of assay: (§1) Percentage inhibitory activity against Phospholipase A2 isolated from venom of Vipera russelli. The conditions noted are these: concentration not given here.
Assay [2] deals with Trimeresurus malabaricus. The assay can be described thus: (§2) Percentage inhibitory activity against Phospholipase A2 isolated from venom of Trimeresurus malabaricus. The conditions noted are these: concentration not given here.
Assay [3] concerns Naja naja. The assay can be described thus: (§3) Percentage inhibitory activity against Phospholipase A2 isolated from venom of Naja naja. The conditions noted are these: concentration not given here.
Assay [4] deals with Mus musculus. Kind of assay: Antiinflammatory activity was evaluated for the increase in weight due to edema was calculated as edema ratio. Format: functional.
Assay [5] has as its system Trimeresurus malabaricus. Kind of assay: Percentage inhibitory activity against Phospholipase A2 isolated from venom of Trimeresurus malabaricus; NI = No inhibition.
The target in assay [6] is Phospholipase A2, major isoenzyme (Sus scrofa) (UniProt P00592). The description is as §1. Conditions: Daboia russellii; concentration not given here.
Phospholipase A2, major isoenzyme (Sus scrofa), sequence (P00592 23-146 limits assumed): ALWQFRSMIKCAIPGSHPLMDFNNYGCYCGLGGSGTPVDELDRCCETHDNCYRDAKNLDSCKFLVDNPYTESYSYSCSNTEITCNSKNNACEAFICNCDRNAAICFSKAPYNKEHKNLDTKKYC
Assay [7] has the same target. Described as §2. Conditions: concentration not given here.
Assay [8] shares this target. The assay is described as §3. The conditions noted are these: concentration not given here.

As a reminder, the inhibition is the drop in the measured response relative to a control, in per cent. As for `Cc1cccc(/C(=N/O)c2ccccc2)c1`, the inhibition in assay [1] stood at 79.2%; in assay [2] it was 81.6%; in assay [3], 82.9%. Besides, the Edema ratio in assay [4] was 102 and 110 and 101 and 103 and 109.

Take `COc1cccc(C(=NO)c2cccc(OC)c2)c1`: the inhibition came out at 58.7% in assay [1] and 36.9% in assay [3]. Moreover, the inhibition entry in assay [5] is “inactive”. In addition, the Edema ratio in assay [4] was 136 and 142 and 181 and 147 and 149.

As for `COc1ccc(/C(=N/O)c2cccc(Cl)c2)cc1OC`, the inhibition in assay [6] was determined as 85.3%; in assay [7], 72.4%; in assay [8], 90.2%. Moreover, the Edema ratio in assay [4] was 101 and 109 and 105 and 106 and 107.

Take `COc1ccc(/C(=N/O)c2ccccc2)cc1`: the inhibition in assay [1] is 29.9%; in assay [3], 42.4%. Besides, the inhibition result in assay [5] was “inactive”. In addition, in assay [4], the Edema ratio is 180 and 142 and 183 and 147 and 151.
